# Molecular target: T1, KPC-2 (Klebsiella pneumoniae, UniProt Q9F663)
# T1 construct: recombinant KPC-2 from pET28a (bla KPC-2 gene, NCBI NG_049253.1), expressed in E. coli BL21(DE3), Ni column purified
# Test: nitrocefin hydrolysis assay with purified KPC-2, absorbance at […] nm
# Type: biochemical
# T1 sequence (Q9F663 25-293 limits assumed): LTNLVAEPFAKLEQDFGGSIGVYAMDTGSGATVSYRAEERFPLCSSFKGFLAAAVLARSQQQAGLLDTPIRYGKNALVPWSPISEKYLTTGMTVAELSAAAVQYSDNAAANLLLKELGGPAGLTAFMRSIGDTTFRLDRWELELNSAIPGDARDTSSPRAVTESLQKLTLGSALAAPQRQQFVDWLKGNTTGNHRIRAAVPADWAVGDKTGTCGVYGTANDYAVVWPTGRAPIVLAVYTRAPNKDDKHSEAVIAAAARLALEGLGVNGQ
smiles,measurement,value
"C[C@H]1[C@H](C)CC[C@]2(C(=O)O)CC[C@]3(C)C(=CC[C@@H]4[C@@]5(C)C[C@@H](O)[C@H](O)C(C)(C)[C@@H]5CC[C@]43C)[C@H]12 [CA, corosolic acid]",IC50,4.97 µM

# — PMC7363806, “Characterization of Corosolic Acid as a KPC-2 Inhibitor That Increases the Susceptibility of KPC-2-Positive Bacteria to Carbapenems” (Frontiers in Pharmacology, 2020)
